{
  "source": "patent US20240279236A1",
  "about": "“COMPOUNDS AND METHODS OF TREATING TUBERCULOSIS” (Fimbrion Therapeutics, Inc., priority 2021, published 2024)",
  "data": [
    {"system": "WT Mtb Erdman strain", "assay": "Microplate Alamar Blue Assay (MABA), Mtb growth inhibition", "assay_type": "cell-based, Mycobacterium tuberculosis", "details": "Mycobacterium tuberculosis, ERDMAN, 168 h, Middlebrook 7H9 media, 7 days at 37° C. in 5% CO2", "units": {"IC50": "µM"}, "values": [
      {"compound": "CCc1nc(NCCCc2ccc(-c3ccc(Cl)c(Cl)c3)cc2)c2cc(C)sc2n1", "note": "[Example 281, N-(3-(3′,4′-dichloro-[1,1′-biphenyl]-4-yl)propyl)-2-ethyl-6-methylthieno[2,3-d]pyrimidin-4-amine]", "IC50": 0.044},
      {"compound": "Cc1cc2c(NCCCc3ccc(-c4ccc(OC(F)(F)F)cc4)cc3)nc(-c3cnn(C)c3)nc2s1", "note": "[Example 447, 6-methyl-2-(1-methyl-1H-pyrazol-4-yl)-N-(3-(4′-(trifluoromethoxy)-[1,1′-biphenyl]-4-yl)propyl)thieno[2,3-d]pyrimidin-4-amine]", "IC50": 0.057},
      {"compound": "Cc1cc2c(NCCCCc3ccc(-c4ccc(OC(F)(F)F)cc4)cc3)nc(-c3ccoc3)nc2s1", "note": "[Example 312, 2-(furan-3-yl)-6-methyl-N-(4-(4′-(trifluoromethoxy)-[1,1′-biphenyl]-4-yl)butyl)thieno [2,3-d]pyrimidin-4-amine]", "IC50": 0.38},
      {"compound": "Cc1cc2c(NCCCc3ccccc3)nc(N3CCSCC3)nc2s1", "note": "[Example 507, 6-methyl-N-(3-phenylpropyl)-2-thiomorpholinothieno[2,3-d]pyrimidin-4-amine]", "IC50": "> 10"},
      {"compound": "CCc1nc(N(C)CCCc2ccccc2)c2cc(C)sc2n1", "note": "[Example 17, 2-ethyl-N,6-dimethyl-N-(3-phenylpropyl)thieno [2,3-d]pyrimidin-4-amine]", "IC50": 7.6},
      {"compound": "Cc1cc2c(NCCCc3ccc(-c4cnc5[nH]ccc5n4)cc3)nc(-c3ccoc3)nc2s1", "note": "[Example 397, 2-(furan-3-yl)-6-methyl-N-[3-(4-(5H-pyrrolo[2,3-b]pyrazin-2-yl)phenyl)propyl] thieno[2,3-d] pyrimidin-4-amine]", "IC50": 5},
      {"compound": "Cc1cc2c(NCCCc3ccccc3)nc(SC(C)C)nc2s1", "note": "[Example 100, 2-(isopropylthio)-6-methyl-N-(3-phenylpropyl)thieno [2,3-d]pyrimidin-4-amine]", "IC50": 3.2},
      {"compound": "Cc1ccc(CCCNc2nc(C(F)(F)F)nc3sc(C)cc23)cc1", "note": "[Example 244, 6-methyl-N-(3-(p-tolyl)propyl)-2-(trifluoromethyl) thieno[2,3-d] pyrimidin-4-amine]", "IC50": 1},
      {"compound": "CSc1nc(NCCCc2ccc(-c3cnc(F)cn3)cc2)c2nc(C)sc2n1", "note": "[Example 424, N-(3-[4-(5-fluoropyrazin-2-yl)phenyl]propyl)-2-methyl-5-(methylsulfanyl)-[1,3]thiazolo[5,4-d]pyrimidin-7-amine]", "IC50": 0.041},
      {"compound": "CCc1nc(NCCc2cccc(Cl)c2)c2cc(C)sc2n1", "note": "[Example 8, N-(3-chlorophenethyl)-2-ethyl-6-methylthieno[2,3-d]pyrimidin-4-amine]", "IC50": 0.69},
      {"compound": "Cc1cc2c(NCCc3ccc4ccccc4n3)nc(C(F)(F)F)nc2s1", "note": "[Example 180, 6-methyl-N-(2-(quinolin-2-yl)ethyl)-2-(trifluoromethyl) thieno[2,3-d] pyrimidin-4-amine]", "IC50": "> 10"},
      {"compound": "Cc1cc2c(NCCCc3ccccc3)nc(SCc3ccccc3)nc2s1", "note": "[Example 142, 2-(benzylthio)-6-methyl-N-(3-phenylpropyl)thieno [2,3-d]pyrimidin-4-amine]", "IC50": "> 10"},
      {"compound": "Cc1cc2c(NCCCc3ccc(-c4ccc(OC(F)(F)F)cc4)cc3)nc(-c3ccn(C)c3)nc2s1", "note": "[Example 441, 6-methyl-2-(1-methyl-1H-pyrrol-3-yl)-N-(3-(4′-(trifluoromethoxy)-[1,1′-biphenyl]-4-yl)propyl)thieno[2,3-d]pyrimidin-4-amine]", "IC50": 0.049},
      {"compound": "Cc1cc2c(NCCCc3ccc(-c4cnc(C(F)(F)F)nc4)cc3)nc(-c3ccoc3)nc2s1", "note": "[Example 386]", "IC50": 0.22},
      {"compound": "CCc1nc(NCCCc2ccc(OC)c(OC)c2)c2cc(C)sc2n1", "note": "[Example 22, N-(3-(3,4-dimethoxyphenyl)propyl)-2-ethyl-6-methylthieno[2,3-d]pyrimidin-4-amine]", "IC50": 0.77},
      {"compound": "Cc1cc2c(NCCCc3ccc(-c4ccnc(O)c4)cc3)nc(-c3ccoc3)nc2s1", "note": "[Example 390, 4-[4-(3-([2-(furan-3-yl)-6-methylthieno[2,3-d]pyrimidin-4-yl]amino)propyl)phenyl]pyridin-2-ol]", "IC50": 9.3},
      {"compound": "Cc1cc2c(NCCCc3ccc(-c4ccc(F)nc4)cc3)nc(N(C)C)nc2s1", "note": "[Example 555, N4-(3-[4-(6-fluoropyridin-3-yl)phenyl]propyl)-N2,N2,6-trimethylthieno[2,3-d]pyrimidine-2,4-diamine]", "IC50": 0.029},
      {"compound": "Cc1cc2c(NCCCc3ccc(-c4ccc(OC(F)(F)F)cc4)cc3)nc(-c3cc[nH]c3)nc2s1", "note": "[Example 568, 6-methyl-2-(1H-pyrrol-3-yl)-N-(3-(4′-(trifluoromethoxy)-[1,1′-biphenyl]-4-yl)propyl)thieno[2,3-d]pyrimidin-4-amine]", "IC50": "> 1"},
      {"compound": "Cc1cc2c(NCCCc3ccc(-c4ccc(OC(F)(F)F)cc4)cc3)nc(N)nc2s1", "note": "[Example 537, 6-methyl-N4-(3-(4′-(trifluoromethoxy)-[1,1′-biphenyl]-4-yl)propyl)thieno[2,3-d]pyrimidine-2,4-diamine]", "IC50": 0.13},
      {"compound": "Cc1cc2c(NC(=O)CCc3ccccc3)nc(-c3ccoc3)nc2s1", "note": "[Example 577, N-(2-(furan-3-yl)-6-methylthieno[2,3-d]pyrimidin-4-yl)-3-phenylpropanamide]", "IC50": 0.071},
      {"compound": "Cc1cc2c(NCCCc3ccccc3)nc(C3CCCC3)nc2s1", "note": "[Example 94, 2-cyclopentyl-6-methyl-N-(3-phenylpropyl)thieno [2,3-d]pyrimidin-4-amine]", "IC50": 0.93},
      {"compound": "CCc1nc(NCCCc2ccc(-c3ccccc3)cc2)c2cc(C)sc2n1", "note": "[Example 265, N-(3-([1,1′-biphenyl]-4-yl)propyl)-2-ethyl-6-methylthieno[2,3-d]pyrimidin-4-amine]", "IC50": 0.15},
      {"compound": "Cc1nc(NCCCc2ccc(-c3ccc(OC(F)(F)F)cc3)cc2)c2cc(C)sc2n1", "note": "[Example 445, 2,6-dimethyl-N-(3-(4′-(trifluoromethoxy)-[1,1′-biphenyl]-4-yl)propyl)thieno[2,3-d]pyrimidin-4-amine]", "IC50": 0.16},
      {"compound": "CCc1nc(NCC(O)Cc2ccccc2)c2cc(C)sc2n1", "note": "(centres unmarked) [Example 194, 1-((2-ethyl-6-methylthieno[2,3-d]pyrimidin-4-yl)amino)-3-phenylpropan-2-ol]", "IC50": "> 10"},
      {"compound": "Cc1cc2c(NCCCc3ccc(-c4cnc(Cl)cn4)cc3)nc(-c3ccoc3)nc2s1", "note": "[Example 395, N-(3-[4-(5-chloropyrazin-2-yl)phenyl]propyl)-2-(furan-3-yl)-6-methylthieno[2,3-d]pyrimidin-4-amine]", "IC50": 0.005},
      {"compound": "CCc1nc(NCCc2ccc([N+](=O)[O-])cc2)c2cc(C)sc2n1", "note": "[Example 16, 2-ethyl-6-methyl-N-(4-nitrophenethyl)thieno [2,3-d]pyrimidin-4-amine]", "IC50": 9},
      {"compound": "Cc1cc2c(NCCCc3ccccc3)nc(-c3ccoc3)nc2s1", "note": "[Example 102, 2-(furan-3-yl)-6-methyl-N-(3-phenylpropyl)thieno [2,3-d]pyrimidin-4-amine]", "IC50": 0.027},
      {"compound": "Cc1cc2c(NCCCc3ccc(-c4ccc(C(F)(F)F)nn4)cc3)nc(-c3ccoc3)nc2s1", "note": "[Example 389, 2-(furan-3-yl)-6-methyl-N-(3-(4-[6-(trifluoro-methyl)pyridazin-3-yl]phenyl)propyl)thieno[2,3-d]pyrimidin-4-amine]", "IC50": 0.032},
      {"compound": "c1ccc(CCCNc2nc(NC3CC3)nc3sccc23)cc1", "note": "[Example 505, N2-cyclopropyl-N4-(3-phenylpropyl)thieno[2,3-d]pyrimidine-2,4-diamine]", "IC50": 9.1},
      {"compound": "Cc1cc2c(NCCCc3ccc(-c4ncc(C(F)(F)F)cn4)cc3)nc(-c3ccoc3)nc2s1", "note": "[Example 394, 2-(furan-3-yl)-6-methyl-N-(3-(4-[5-(trifluoromethyl)pyrimidin-2-yl]phenyl)propyl) thieno[2,3-d] pyrimidin-4-amine]", "IC50": "< 0.004"},
      {"compound": "CCc1nc(NCCCOc2ccccc2)c2cc(C)sc2n1", "note": "[Example 64, 2-ethyl-6-methyl-N-(3-phenoxypropyl)thieno [2,3-d]pyrimidin-4-amine]", "IC50": 1.7},
      {"compound": "CCc1nc(NCCNc2ccccc2)c2cc(C)sc2n1", "note": "[Example 62, N1-(2-ethyl-6-methylthieno[2,3-d]pyrimidin-4-yl)-N2-phenylethane-1,2-diamine]", "IC50": 0.81},
      {"compound": "CCc1nc(NCCc2ccncc2)c2cc(C)sc2n1", "note": "[Example 12, 2-ethyl-6-methyl-N-(2-(pyridin-4-yl)ethyl)thieno[2,3-d]pyrimidin-4-amine]", "IC50": "> 10"},
      {"compound": "Cc1cc2c(NCCCc3ccc(-c4cnoc4)cc3)nc(-c3ccoc3)nc2s1", "note": "[Example 332, 2-(furan-3-yl)-6-methyl-N-(3-[4-(1,2-oxazol-4-yl)phenyl]propyl) thieno[2,3-d]pyrimidin-4-amine]", "IC50": 0.08},
      {"compound": "Cc1cc2c(NCCCc3ccccc3)nc(-c3ccc(N(C)C)cc3)nc2s1", "note": "[Example 92, 2-(4-(dimethylamino)phenyl)-6-methyl-N-(3-phenylpropyl)thieno [2,3-d]pyrimidin-4-amine]", "IC50": 2.7},
      {"compound": "Cc1cc2c(N[C@@H]3C[C@H]3c3ccc(F)c(F)c3)nc(C3CC3)nc2s1", "note": "[Example 43, 2-cyclopropyl-N-((1R,2S)-2-(3,4-difluorophenyl)cyclopropyl)-6-methylthieno[2,3-d]pyrimidin-4-amine]", "IC50": 2.4},
      {"compound": "Cc1cc(Cc2nc(NCCCc3ccccc3)c3cc(C)sc3n2)no1", "note": "[Example 140, 6-methyl-2-((5-methylisoxazol-3-yl)methyl)-N-(3-phenylpropyl)thieno [2,3-d]pyrimidin-4-amine]", "IC50": "> 10"},
      {"compound": "Cc1cc2c(NCCCc3ccccc3)nc(C3CCCCC3)nc2s1", "note": "[Example 95, 2-cyclohexyl-6-methyl-N-(3- |phenylpropyl)thieno [2,3-d]pyrimidin-4-amine]", "IC50": "> 10"},
      {"compound": "CCc1nc(NCCCc2ccc(N3CCCCC3)cc2)c2cc(C)sc2n1", "note": "[Example 421, 2-ethyl-6-methyl-N-(3-(4-(piperidin-1-yl)phenyl)propyl) thieno[2,3-d]pyrimidin-4-amine]", "IC50": 0.17},
      {"compound": "CCc1nc(NCCCc2cc(F)cc(C(F)(F)F)c2)c2cc(C)sc2n1", "note": "[Example 259, 2-ethyl-N-(3-(3-fluoro-5-(trifluoromethyl)phenyl)propyl)-6-methylthieno[2,3-d]pyrimidin-4-amine]", "IC50": 0.56},
      {"compound": "Cc1cc2c(NCCCc3ccccc3)nc(C3(N)CC3)nc2s1", "note": "[Example 58, 2-(1-aminocyclopropyl)-6-methyl-N-(3-phenylpropyl)thieno [2,3-d]pyrimidin-4-amine]", "IC50": 5}
    ]}
  ]
}
